According to patent US20040071718A1, “Local nasal immunotherapy for allergen-induced airway inflammation” (priority 2002, published 2004):
Marks after values point to notes of the source that are not given here.

Columns and labels:
Format in all cases: in vivo
Balb/c mice [1] = assay: Cytokine producing cells in peripheral blood (flow cytometry) after LNIT; settings: for IL-5/IFN-γ (CD4) / IL-5/IFN-γ (CD8): peripheral blood
Method: (§1) Male Balb/c mice were obtained from the National Laboratory Breeding Research Center in Taiwan and were raised in a specific pathogen-free environment. The mice used were between six and eight weeks of age. Groups of six mice were caged separately according to their treatment.
(§2) Mice were immunized by way of an intraperitoneal (IP) injection of 1 μg/0.1 mL rDp2 emulsified in 4.0 mg/0.062mL aluminum hydroxide Al(OH)3 (Whitehall Lab Ltd. Punchbowl, NSW, Australia) on day 0 and day 7. Following immunization, local nasal immunotherapy (LNIT) was conducted daily from day 14 to day 35 with Dp2 28-40, Dp2 28-40A, FIP alone or FIP mixed with either Dp2 28-40 or Dp2 28-40A (FIP, 50 μg/mouse/day; Dp2 peptide, 1 μg/20 μL) in PBS with 10% glycerol. Normal saline (NS) and irrelevant allergen Bt were used as a negative control. […] On day 28, mice were lightly anesthetized with an IP injection of 60 mg/kg of sodium pentobarbital (Sigma Chemical Co., St Louis, Mo., U.S.A.) and inoculated intratracheally (IT) with 1 μg/50 μL of rDp 2 on day 28 and day 35. Two days subsequent to the second IT inoculation, the mice were sacrificed following the assessment of their pulmonary function (FIG. 1).
Two-color staining methods were used to analyze IFN-γ and IL-5 expression amongst CD4 cells. Leukocytes derived from peripheral blood (PBL) were stimulated with PMA (50 ng/mL), ionomycin (2 μM) and GolgiStop (Cytofix/Cytoperm Plus Pharmingen San Diego, Calif., U.S.A.) for five hours and then washed twice using PBS. The cells were stained with CD4-PerCP, CD8-FITC or IgG1-FITC (PharMingen) at room temperature (RT) for 30 minutes and then washed. Cells were fixed with cytofix/cytoperm at RT for 30 minutes and then stained with anti-cytokine antibody and IgG2a-PE (PharMingen) at RT for 30 minutes and subsequently washed. Both IgG1-FITC and IgG2a-PE were purchased from the same manufacturer as the anticytokine antibodies and the negative controls. Cells were resuspended in 0.5 mL PBS containing 0.1% w/v sodium azide. Mean fluorescence was measured by means of Becton Diskinson flow cytometry (Becton Diskinson, Calif., U.S.A.). A total of 2,000 cells was analyzed for each sample.

Balb/c mice [2] = assay: Leukocyte subpopulations in BALF of rDp2-sensitized mice after local nasal immunotherapy (LNIT); settings: for Eosinophil / Lymphocyte / Macrophage / Neutrophil / Total cell: BALF; for anti-inflammatory effect on airway inflammation: Example 1, BALF inflammatory cells compared to the NS groups
Method: Male Balb/c mice were obtained from the National Laboratory Breeding Research Center in Taiwan and were raised in a specific pathogen-free environment. The mice used were between six and eight weeks of age. Groups of six mice were caged separately according to their treatment. Recombinant Dermatophoides pteronyssinus group 2 (rDp2) was prepared as previously described(Tsai J J, et al. Int Arch Allergy Immunol 2000;121:205-10). Dp2 28-40 and Dp2 28-40A were obtained from Dr. Jonathan Lamb (Respiratory Medicine Unit, Edinburgh University, Medical School, Edinburgh, UK) (Verhoef A, and Lamb J R. J Immunol 2000;164:6034-6040). FIP was obtained from Dr. Ko Jiunn-Liang (Institute of Toxicology, Chung Shan Medical University, Taichung, R O C) (J L Ko, et al. Eur. J. Biochem. 1995;228:244-249).
as §2
Subsequent to pulmonary function measurement having been completed, bronchoalveolar lavage (BAL) was performed using the following procedure. BAL fluids were collected with lmL sterile endotoxin-free saline washes of each lung via the trachea for each mouse. BAL cells were washed once with PBS by centrifugation at 200×g at 4° C. Subsequent to washing, the cells were resuspended in RPMI-1640 (Sigma Chemical Co.). The total leukocyte count in BAL fluids was determined using a hemocytometer. The BAL fluids were aspirated and stored at −70° C. until needed for assay purposes. Subsequent to total leukocyte counting, a cytospin preparation of 100 μL BAL fluids (2×10^5 cells/mL) was conducted, the cells being cytocentrifuged directly onto glass slides at 350 r.p.m. for five minutes using a Cytospin 3 cytocentrifuge (Shandon Scientific Limited, Astmoor, Runcorn, UK), and then stained with Liu stain (Tonyar Diagnostic Inc, Taipei & Hien, Taiwan). The differential counts were performed for a total of 200 leukocyte cells.

Balb/c mice [3] = assay: Free radical production in BALF (chemiluminescence) after LNIT; settings: FIG. 4, chemiluminescence, expressed as counts/10 seconds, compared to NS control
Method: as §2
Using chemiluminescence, free radicals in the BAL fluid were measured immediately after each experiment. The total amounts of free radical were detected and expressed as counts/10 seconds.

Balb/c mice [4] = assay: IL-5 and IFN-γ levels in sera and BALF (ELISA) after LNIT; settings: for IL-5 levels in sera: Example 1, FIG. 3A; for IFN-γ levels in sera: Example 1, FIG. 3B; for IFN-γ / IL-5: Example 2, mean ± SEM, n = 6
Method: as §1, §2
IFN-γ and IL-5 were measured using commercially-available ELISA kits, using a specific mouse monoclonal Ab that recognized different epitopes of the cytokine molecules. The lowest detector range was 10 pg/mL. Given that the BALF was considered to be at too diluted a concentration, IL-4 was not measured.

[5] = Example 1, percentage of positive stained cells in the PBMC of six mice
[6] = Example 1, ratio of IL-5 to IFN-γ producing CD4 cells
[7] = Example 1, ratio of IL-5 to IFN-γ producing CD8 cells
[8] = Example 1, LNIT day 14-35, rDp2 IT challenge, mean ± SEM of six animals
[9] = Example 2, percentage of total leukocytes in the peripheral blood of six mice
[10] = Example 2 (FIP study), mean ± SEN of six mice

Dp2 28-40: Dermatophoides pteronyssinus group 2 (Dp2) epitope peptide, residues 28-40, amino acid sequence ID No. 1 (IIHRGKPFQLEAV; listed as Dermatophoides pteronyssinus)
CD4^+ (Balb/c mice [1]; [5]): 56.0 percentage | CD8^+ (Balb/c mice [1]; [5]): 9.8 percentage | IFN-γ^+/CD4^+ (Balb/c mice [1]; [5]): 27.8 percentage | IFN-γ^+/CD8^+ (Balb/c mice [1]; [5]): 16.8 percentage | IL-5^+/CD4^+ (Balb/c mice [1]; [5]): 17.7 percentage | IL-5^+/CD8^+ (Balb/c mice [1]; [5]): 9.5 percentage | IL-5/IFN-γ (CD4) (Balb/c mice [1]; [6]): 0.6 | IL-5/IFN-γ (CD8) (Balb/c mice [1]; [7]): 0.6 | Eosinophil (Balb/c mice [2]; [8]): 3.5 ± 0.5* 10^4 cells/mL | Lymphocyte (Balb/c mice [2]; [8]): 11.8 ± 0.8* 10^4 cells/mL | Macrophage (Balb/c mice [2]; [8]): 31.0 ± 2.5* 10^4 cells/mL | Neutrophil (Balb/c mice [2]; [8]): 7.2 ± 1.5* 10^4 cells/mL | Total cell (Balb/c mice [2]; [8]): 53.3 ± 4.1* 10^4 cells/mL | anti-inflammatory effect on airway inflammation (Balb/c mice [2]): best anti-inflammatory effect | free radical production in the BAL fluid (Balb/c mice [3]): significantly inhibited | IL-5 levels in sera (Balb/c mice [4]; compared to NS treated mice): decreased | IFN-γ levels in sera (Balb/c mice [4]; compared to NS treated mice): Significantly increased | IL-5 levels in BALF (Balb/c mice [4]; Example 1, FIG. 3C, compared to NS treated mice): significant reduction | IFN-γ levels in BALF (Balb/c mice [4]; Example 1, FIG. 3D, compared to NS treated mice): significant increase

Dp2 28-40A: altered TCR ligand of Dp2 28-40, residues at positions 34 and 36 substituted by alanine; amino acid sequence ID No. 2 (IIHRGKAFALEAV; listed as Dermatophoides pteronyssinus)
CD4^+ (Balb/c mice [1]; [5]): 51.8 percentage | CD8^+ (Balb/c mice [1]; [5]): 10.7 percentage | IFN-γ^+/CD4^+ (Balb/c mice [1]; [5]): 11.4 percentage | IFN-γ^+/CD8^+ (Balb/c mice [1]; [5]): 5.8 percentage | IL-5^+/CD4^+ (Balb/c mice [1]; [5]): 11.4 percentage | IL-5^+/CD8^+ (Balb/c mice [1]; [5]): 3.5 percentage | IL-5/IFN-γ (CD4) (Balb/c mice [1]; [6]): 1.0 | IL-5/IFN-γ (CD8) (Balb/c mice [1]; [7]): 0.6 | Eosinophil (Balb/c mice [2]; [8]): 3.0 ± 1.0* 10^4 cells/mL | Lymphocyte (Balb/c mice [2]; [8]): 14.6 ± 3.3* 10^4 cells/mL | Macrophage (Balb/c mice [2]; [8]): 38.4 ± 7.2* 10^4 cells/mL | Neutrophil (Balb/c mice [2]; [8]): 8.2 ± 1.1* 10^4 cells/mL | Total cell (Balb/c mice [2]; [8]): 65.0 ± 3.2* 10^4 cells/mL | anti-inflammatory effect on airway inflammation (Balb/c mice [2]): weaker than Dp2 28-40 | IL-5 levels in sera (Balb/c mice [4]; compared to NS treated mice): decreased | IFN-γ levels in sera (Balb/c mice [4]; compared to NS treated mice): Significantly increased

B1: FIP: fungal immunomodulatory protein isolated from Flammalina velutipes, amino acid sequence ID No. 3 (protein)
chain: SATSLTFQLAVLVKKIDFDYTPNWGRGTPSSYIDNLTFPKVLTDKKYSYRVVVNGSDLGVESNFAVTPSGGQTINFLQYNKGYGVADTKTIQVFVVIPDTGNSEEYIIAEWKKT
modifications: Flammalina velutipes
CD4 (Balb/c mice [1]; [9]): 29.1 percentage | CD8 (Balb/c mice [1]; [9]): 7.0 percentage | IFN-γ^+/CD4^+ (Balb/c mice [1]; [9]): 13.7 percentage | IFN-γ^+/CD8^+ (Balb/c mice [1]; [9]): 5.0 percentage | IL-5^+/CD4^+ (Balb/c mice [1]; [9]): 12.6 percentage | IL-5^+/CD8^+ (Balb/c mice [1]; [9]): 8.4 percentage | IL-5/IFN-γ (CD4) (Balb/c mice [1]; Example 2, ratio, CD4 cells): 0.9 | IL-5/IFN-γ (CD8) (Balb/c mice [1]; Example 2, ratio, CD8 cells): 1.7 | Eosinophil (Balb/c mice [2]; [10]): 6.3 ± 1.3 ×10^4/mL | Lymphocyte (Balb/c mice [2]; [10]): 13.0 ± 1.8 ×10^4/mL | Macrophage (Balb/c mice [2]; [10]): 37.0 ± 7.4 ×10^4/mL | Neutrophil (Balb/c mice [2]; [10]): 9.0 ± 2.4 ×10^4/mL | Total cell (Balb/c mice [2]; [10]): 65.0 ± 10.5 ×10^4/mL | airway-inflammation level (cellular component in BALF) (Balb/c mice [2]; Example 2, text summary of Table 3): diminish the airway-inflammation level | IFN-γ (Balb/c mice [4]; BALF): 8.3 ± 0.4 pg/mL | IL-5 (Balb/c mice [4]; BALF): 19.3 ± 1.9 pg/mL | IFN-γ (Balb/c mice [4]; Sera): 52.0 ± 1.9 pg/mL | IL-5 (Balb/c mice [4]; Sera): 77.6 ± 1.9 pg/mL
